Reference: US12364709B2, “Bioavailable poly amines” (AMINEX THERAPEUTICS, INC., priority 2016, dated 2025)
Read-outs that look alike come from different tables or passages of the source.

Test: 28-day repeat-dose toxicity study, toxicokinetics of AMXT 1501 dicaprate
Format: in vivo, beagle dogs
Details: both sexes, beagle, dog, plasma, po
Method: AMXT 1501 PK parameters were calculated for all AMXT 1501 dicaprate-dosed animals for the first dose (Day 1) and last dose (Day 28).

## CCCCCCCCCCCCCCCC(=O)NCCCC[C@@H](N)C(=O)NCCCNCCCCNCCCN [AMXT 1501 dicaprate]
16 mg/kg/day, 16 mg/kg/day PO, DFMO 0, Day 28, M+F combined, read-out: AUC0-t Median
  AUC(0-t): 8120 ng·h/mL
16 mg/kg/day, 16 mg/kg/day PO, DFMO 0, Day 28, M+F combined, read-out: AUC0-∞ Mean
  AUC(0-inf): 8070 ng·h/mL
16 mg/kg/day, 16 mg/kg/day PO, DFMO 0, Day 28, M+F combined, read-out: AUC0-∞ Median
  AUC(0-inf): 8280 ng·h/mL
16 mg/kg/day, 16 mg/kg/day PO, DFMO 0, Day 28, M+F combined, read-out: Cmax Mean
  Cmax: 286 ng/mL
16 mg/kg/day, 16 mg/kg/day PO, DFMO 0, Day 28, M+F combined, read-out: Cmax Median
  Cmax: 309 ng/mL
16 mg/kg/day, 16 mg/kg/day PO, DFMO 0, Day 28, M+F combined, read-out: Tmax Mean
  Tmax: 5.6 h
16 mg/kg/day, 16 mg/kg/day PO, DFMO 0, Day 28, M+F combined, read-out: Tmax Median
  Tmax: 6 h
16 mg/kg/day, 16 mg/kg/day PO, DFMO 0, Day 28, M+F combined, read-out: t1/2 Mean (converted)
  half-life: 1.06 days
16 mg/kg/day, 16 mg/kg/day PO, DFMO 0, Day 28, M+F combined, read-out: t1/2 Median (converted)
  half-life: 1.16 days
16 mg/kg/day, 16 mg/kg/day PO, DFMO 50 mg/kg/day, Day 28, M+F combined, read-out: AUC0-24 hr Mean
  AUC(0-t): 4390 ng·h/mL
16 mg/kg/day, 16 mg/kg/day PO, DFMO 50 mg/kg/day, Day 28, M+F combined, read-out: AUC0-24 hr Median
  AUC(0-t): 3340 ng·h/mL
16 mg/kg/day, 16 mg/kg/day PO, DFMO 50 mg/kg/day, Day 28, M+F combined, read-out: AUC0-t Mean
  AUC(0-t): 9440 ng·h/mL
16 mg/kg/day, 16 mg/kg/day PO, DFMO 50 mg/kg/day, Day 28, M+F combined, read-out: AUC0-t Median
  AUC(0-t): 6010 ng·h/mL
16 mg/kg/day, 16 mg/kg/day PO, DFMO 50 mg/kg/day, Day 28, M+F combined, read-out: AUC0-∞ Mean
  AUC(0-inf): 9590 ng·h/mL
16 mg/kg/day, 16 mg/kg/day PO, DFMO 50 mg/kg/day, Day 28, M+F combined, read-out: AUC0-∞ Median
  AUC(0-inf): 6080 ng·h/mL
16 mg/kg/day, 16 mg/kg/day PO, DFMO 50 mg/kg/day, Day 28, M+F combined, read-out: Cmax Mean
  Cmax: 262 ng/mL
16 mg/kg/day, 16 mg/kg/day PO, DFMO 50 mg/kg/day, Day 28, M+F combined, read-out: Cmax Median
  Cmax: 213 ng/mL
16 mg/kg/day, 16 mg/kg/day PO, DFMO 50 mg/kg/day, Day 28, M+F combined, read-out: Tmax Mean
  Tmax: 6.3 h
16 mg/kg/day, 16 mg/kg/day PO, DFMO 50 mg/kg/day, Day 28, M+F combined, read-out: Tmax Median
  Tmax: 6 h
16 mg/kg/day, 16 mg/kg/day PO, DFMO 50 mg/kg/day, Day 28, M+F combined, read-out: t1/2 Mean (converted)
  half-life: 2.2 days
16 mg/kg/day, 16 mg/kg/day PO, DFMO 50 mg/kg/day, Day 28, M+F combined, read-out: t1/2 Median (converted)
  half-life: 2.41 days
16 mg/kg/day, 16 mg/kg/day PO, DFMO 200 mg/kg/day, Day 1, M+F combined, read-out: AUC0-24 hr Mean
  AUC(0-t): 2310 ng·h/mL
16 mg/kg/day, 16 mg/kg/day PO, DFMO 200 mg/kg/day, Day 1, M+F combined, read-out: AUC0-24 hr Median
  AUC(0-t): 2470 ng·h/mL
16 mg/kg/day, 16 mg/kg/day PO, DFMO 200 mg/kg/day, Day 1, M+F combined, read-out: Cmax Mean
  Cmax: 152 ng/mL
16 mg/kg/day, 16 mg/kg/day PO, DFMO 200 mg/kg/day, Day 1, M+F combined, read-out: Cmax Median
  Cmax: 171 ng/mL
16 mg/kg/day, 16 mg/kg/day PO, DFMO 200 mg/kg/day, Day 1, M+F combined, read-out: Tmax Mean
  Tmax: 8.4 h
16 mg/kg/day, 16 mg/kg/day PO, DFMO 200 mg/kg/day, Day 1, M+F combined, read-out: Tmax Median
  Tmax: 6 h
32 mg/kg/day, 32 mg/kg/day PO, DFMO 0, Day 1, M+F combined, read-out: AUC0-24 hr Mean
  AUC(0-t): 3590 ng·h/mL
32 mg/kg/day, 32 mg/kg/day PO, DFMO 0, Day 1, M+F combined, read-out: AUC0-24 hr Median
  AUC(0-t): 3640 ng·h/mL
32 mg/kg/day, 32 mg/kg/day PO, DFMO 0, Day 1, M+F combined, read-out: Cmax Mean
  Cmax: 214 ng/mL
32 mg/kg/day, 32 mg/kg/day PO, DFMO 0, Day 1, M+F combined, read-out: Cmax Median
  Cmax: 224 ng/mL
32 mg/kg/day, 32 mg/kg/day PO, DFMO 0, Day 1, M+F combined, read-out: Tmax Mean
  Tmax: 8.6 h
32 mg/kg/day, 32 mg/kg/day PO, DFMO 0, Day 1, M+F combined, read-out: Tmax Median
  Tmax: 9 h
32 mg/kg/day, 32 mg/kg/day PO, DFMO 0, Day 28, M+F combined, read-out: AUC0-24 hr Mean
  AUC(0-t): 9410 ng·h/mL
32 mg/kg/day, 32 mg/kg/day PO, DFMO 0, Day 28, M+F combined, read-out: AUC0-24 hr Median
  AUC(0-t): 8760 ng·h/mL
32 mg/kg/day, 32 mg/kg/day PO, DFMO 0, Day 28, M+F combined, read-out: AUC0-t Mean
  AUC(0-t): 24700 ng·h/mL
32 mg/kg/day, 32 mg/kg/day PO, DFMO 0, Day 28, M+F combined, read-out: AUC0-t Median
  AUC(0-t): 24300 ng·h/mL
32 mg/kg/day, 32 mg/kg/day PO, DFMO 0, Day 28, M+F combined, read-out: AUC0-∞ Mean
  AUC(0-inf): 24800 ng·h/mL
32 mg/kg/day, 32 mg/kg/day PO, DFMO 0, Day 28, M+F combined, read-out: AUC0-∞ Median
  AUC(0-inf): 24400 ng·h/mL
32 mg/kg/day, 32 mg/kg/day PO, DFMO 0, Day 28, M+F combined, read-out: Cmax Mean
  Cmax: 620 ng/mL
32 mg/kg/day, 32 mg/kg/day PO, DFMO 0, Day 28, M+F combined, read-out: Cmax Median
  Cmax: 620 ng/mL
32 mg/kg/day, 32 mg/kg/day PO, DFMO 0, Day 28, M+F combined, read-out: Tmax Mean
  Tmax: 4.3 h
32 mg/kg/day, 32 mg/kg/day PO, DFMO 0, Day 28, M+F combined, read-out: Tmax Median
  Tmax: 4 h
32 mg/kg/day, 32 mg/kg/day PO, DFMO 0, Day 28, M+F combined, read-out: t1/2 Mean (converted)
  half-life: 2.03 days
32 mg/kg/day, 32 mg/kg/day PO, DFMO 0, Day 28, M+F combined, read-out: t1/2 Median (converted)
  half-life: 2.22 days
